# Laboratory results as given in US12077503B2, “Substituted cyclic amides and their use as herbicides” (FMC CORPORATION, priority 2015, dated 2024).
# Legend:
# Assay type in all cases: in vivo
# [1] = test system: ducksalad (Heteranthera limosa); experiment: Test B flooded paddy test; conditions: Heteranthera limosa, Flood, 250 g ai/ha; scale of 0 to 100 where 0 is no effect and 100 is complete control; read-out: Ducksalad plant response rating
# Outline: (§1)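 Plants at 2-leaf stage flooded to 3 cm above soil, with compounds applied directly to paddy water and that depth maintained. Plants kept in greenhouse 13–15 d. Visual rating versus controls on a 0 (no effect) to 100 (complete control) scale.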
# [2] = test system: sedge, umbrella (small-flower umbrella sedge, Cyperus difformis); experiment: Test B flooded paddy test; conditions: Cyperus difformis, Flood, 250 g ai/ha; scale of 0 to 100 where 0 is no effect and 100 is complete control; read-out: Sedge, Umbrella plant response rating
# Outline: as §1
# rice (Oryra sativa) = experiment: Test B flooded paddy test; conditions: Oryza sativa, Flood, 250 g ai/ha; scale of 0 to 100 where 0 is no effect and 100 is complete control; read-out: Rice plant response rating
# Outline: as §1
# [3] = test system: barnyardgrass (Echinochloa crus-galli); experiment: Test B flooded paddy test; conditions: Echinochloa crus-galli, Flood, 250 g ai/ha; scale of 0 to 100 where 0 is no effect and 100 is complete control; read-out: Barnyardgrass plant response rating
# Outline: as §1
# [4] = test system: ragweed (common ragweed, Ambrosia elatior); experiment: Test A postemergence; conditions: Ambrosia artemisiifolia, post-emergence, 240 h, 125 g ai/ha, postemergence, visual injury rating after approximately 10 d; read-out: Ragweed plant response rating (0 to 100 scale, 0 no effect, 100 complete control)
# Outline: (§2)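 Compounds were formulated in a non-phytotoxic solvent mixture with surfactant and applied as a preemergence directed soil spray after seeding, or sprayed postemergence over plants 2 to 10 cm tall at the one- to two-leaf stage. Evaluation after about 10 d compared treated with untreated controls, using a scale from 0 (no effect) to 100 (complete control).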
# [5] = test system: giant foxtail (Setaria faberii); experiment: Test A postemergence; conditions: Setaria faberi, post-emergence, 240 h, 125 g ai/ha, postemergence, visual injury rating after approximately 10 d; read-out: Foxtail, Giant plant response rating (0 to 100 scale, 0 no effect, 100 complete control)
# Outline: as §2
# [6] = test system: barnyardgrass (Echinochloa crus-galli); experiment: Test A postemergence; conditions: Echinochloa crus-galli, post-emergence, 240 h, 125 g ai/ha, postemergence, visual injury rating after approximately 10 d; read-out: Barnyardgrass plant response rating (0 to 100 scale, 0 no effect, 100 complete control)
# Outline: as §2
# Kochia (Kochia scoparia) [7] = experiment: Test A postemergence; conditions: Bassia scoparia, post-emergence, 240 h, 125 g ai/ha, postemergence, visual injury rating after approximately 10 d; read-out: Kochia plant response rating (0 to 100 scale, 0 no effect, 100 complete control)
# Outline: as §2
# [8] = test system: ragweed (common ragweed, Ambrosia elatior); experiment: Test A preemergence; conditions: Ambrosia artemisiifolia, pre-emergence, 240 h; for pest or weed control at 125 g/ha: 125 g ai/ha, preemergence, 0 to 100 scale where 0 is no effect and 100 is complete control, read-out: Ragweed plant response rating; for pest or weed control at 500 g/ha: 500 g ai/ha, Preemergence, visual injury vs untreated controls after approximately 10 d, read-out: Ragweed plant response rating (0 to 100 scale where 0 is no effect and 100 is complete control)
# Outline: as §2
# [9] = test system: giant foxtail (Setaria faberii); experiment: Test A preemergence; conditions: Setaria faberi, pre-emergence, 240 h; for pest or weed control at 125 g/ha: 125 g ai/ha, preemergence, 0 to 100 scale where 0 is no effect and 100 is complete control, read-out: Foxtail, Giant plant response rating; for pest or weed control at 500 g/ha: 500 g ai/ha, Preemergence, visual injury vs untreated controls after approximately 10 d, read-out: Foxtail, Giant plant response rating (0 to 100 scale where 0 is no effect and 100 is complete control)
# Outline: as §2
# [10] = test system: ryegrass, Italian (Italian ryegrass, Lolium multiflorum); experiment: Test A preemergence; conditions: Lolium multiflorum, pre-emergence, 240 h; for pest or weed control at 125 g/ha: 125 g ai/ha, preemergence, 0 to 100 scale where 0 is no effect and 100 is complete control, read-out: Ryegrass, Italian plant response rating; for pest or weed control at 500 g/ha: 500 g ai/ha, Preemergence, visual injury vs untreated controls after approximately 10 d, read-out: Ryegrass, Italian plant response rating (0 to 100 scale where 0 is no effect and 100 is complete control)
# Outline: as §2
# [11] = test system: barnyardgrass (Echinochloa crus-galli); experiment: Test A preemergence; conditions: Echinochloa crus-galli, pre-emergence, 240 h; for pest or weed control at 125 g/ha: 125 g ai/ha, preemergence, 0 to 100 scale where 0 is no effect and 100 is complete control, read-out: Barnyardgrass plant response rating; for pest or weed control at 500 g/ha: 500 g ai/ha, Preemergence, visual injury vs untreated controls after approximately 10 d, read-out: Barnyardgrass plant response rating (0 to 100 scale where 0 is no effect and 100 is complete control)
# Outline: as §2
# [12] = test system: pigweed (Amaranthus retroflexus); experiment: Test A preemergence; conditions: Amaranthus retroflexus, pre-emergence, 240 h; for pest or weed control at 125 g/ha: 125 g ai/ha, preemergence, 0 to 100 scale where 0 is no effect and 100 is complete control, read-out: Pigweed plant response rating; for pest or weed control at 500 g/ha: 500 g ai/ha, Preemergence, visual injury vs untreated controls after approximately 10 d, read-out: Pigweed plant response rating (0 to 100 scale where 0 is no effect and 100 is complete control)
# Kochia (Kochia scoparia) [13] = experiment: Test A preemergence; conditions: Bassia scoparia, pre-emergence, 240 h; for pest or weed control at 125 g/ha: 125 g ai/ha, preemergence, 0 to 100 scale where 0 is no effect and 100 is complete control, read-out: Kochia plant response rating; for pest or weed control at 500 g/ha: 500 g ai/ha, Preemergence, visual injury vs untreated controls after approximately 10 d, read-out: Kochia plant response rating (0 to 100 scale where 0 is no effect and 100 is complete control)
# Outline: as §2
Compound,pest or weed control at 250 g/ha [1] [%],pest or weed control at 250 g/ha [2] [%],pest or weed control at 250 g/ha (rice (Oryra sativa)) [%],pest or weed control at 250 g/ha [3] [%],pest or weed control at 125 g/ha [4] [%],pest or weed control at 125 g/ha [5] [%],pest or weed control at 125 g/ha [6] [%],pest or weed control at 125 g/ha (Kochia (Kochia scoparia) [7]) [%],pest or weed control at 125 g/ha [8] [%],pest or weed control at 500 g/ha [8] [%],pest or weed control at 125 g/ha [9] [%],pest or weed control at 500 g/ha [9] [%],pest or weed control at 125 g/ha [10] [%],pest or weed control at 500 g/ha [10] [%],pest or weed control at 125 g/ha [11] [%],pest or weed control at 500 g/ha [11] [%],pest or weed control at 125 g/ha [12] [%],pest or weed control at 500 g/ha [12] [%],pest or weed control at 125 g/ha (Kochia (Kochia scoparia) [13]) [%],pest or weed control at 500 g/ha (Kochia (Kochia scoparia) [13]) [%]
O=C1NC[C@H](c2cc(F)c(C(F)(F)F)c(F)c2)[C@H]1C(=O)Nc1ccccc1F [Compound 837],70,0,0,0,10,90,90,20,70,70,90,90,50,70,90,90,20,80,90,90
O=C1NC[C@H](c2cc(F)c(C(F)(F)F)c(F)c2)[C@H]1C(=O)Nc1cccc(F)c1F [Compound 838],100,0,0,40,40,90,90,70,40,60,90,90,20,60,90,90,80,90,70,80
CSc1ccccc1NC(=O)[C@H]1C(=O)N(C)C[C@@H]1c1cc(C)cc(F)c1 [Compound 851],90,0,0,0,0,90,90,0,0,30,90,90,0,70,90,90,60,90,20,70
COc1cc([C@H]2CN(C)C(=O)[C@@H]2C(=O)Nc2ccccc2F)cc(C(F)(F)F)c1 [Compound 855],75,0,0,70,0,90,90,0,0,0,90,90,0,30,90,100,30,–,20,30
CN1C[C@H](c2cccc(OC(F)(F)C(F)F)c2)[C@@H](C(=O)Nc2ccccc2S(C)(=O)=O)C1=O [Compound 864],90,50,40,50,0,70,90,0,20,50,90,90,0,50,90,90,90,90,60,80
CN1C[C@H](c2cc(F)cc(F)c2)[C@@H](C(=O)Nc2ccc(C(F)(F)F)cn2)C1=O [Compound 869],60,0,0,0,0,60,80,0,0,0,90,90,0,0,60,90,0,0,0,0
CN1C[C@H](c2cc(F)cc(F)c2)[C@@H](C(=O)Nc2ccc(C(F)(F)F)nc2)C1=O [Compound 870],0,0,0,0,0,0,0,0,0,0,20,50,0,0,50,80,0,0,0,0
